From patent publication US9029356B2, “Substituted indazole derivatives active as kinase inhibitors” (Nerviano Medical Services S.R.L., priority 2007, dated 2015) come the findings set out here.

For one test, the target named is ALK (Homo sapiens (Human), UniProt Q9UM73). Nature of the test: Biochemical assay for inhibitors of ALK kinase activity. To be noted: 20 nM enzyme, 8 microM ATP, 2 microM MBP. An excerpt:
Preparation of ALK Cytoplasmic Domain for Use in Biochemical Assay
For cloning purposes, the oligonucleotides included attB sites in order to obtain an attB-flanked PCR product suitable for cloning using the Gateway technology (Invitrogen). Furthermore, for purification purposes, forward primer included a PreScission cleavage site (Amersham Biosciences). The resulting PCR product was cloned in the baculovirus expression vector pVL1393 (Invitrogen) Gateway-modified. For expression and purification purpose, a GST tag was added N-terminal to the ALK cytoplasmic domain. Cloning was performed according to the protocols described in the Gateway manual (Invitrogen).
Affinity purified GST-ALK was loaded on a Heparin Sepharose™ FF (Amersham Biosciences) column and eluted with 50 mM NaCl, 25 mM TRIS pH 7.5, 2 mM DTT, 20% glycerol.
Biochemical Assay for Inhibitors of ALK Kinase Activity

Another test has as its target IGF-1R (Homo sapiens (Human), UniProt P08069). Nature of the test: Biochemical assay for inhibitors of IGF-1R kinase activity. To be noted: 6 nM enzyme, 6 microM ATP, 10 microM peptide substrate.

Chain of ALK (Q9UM73 1060-1620): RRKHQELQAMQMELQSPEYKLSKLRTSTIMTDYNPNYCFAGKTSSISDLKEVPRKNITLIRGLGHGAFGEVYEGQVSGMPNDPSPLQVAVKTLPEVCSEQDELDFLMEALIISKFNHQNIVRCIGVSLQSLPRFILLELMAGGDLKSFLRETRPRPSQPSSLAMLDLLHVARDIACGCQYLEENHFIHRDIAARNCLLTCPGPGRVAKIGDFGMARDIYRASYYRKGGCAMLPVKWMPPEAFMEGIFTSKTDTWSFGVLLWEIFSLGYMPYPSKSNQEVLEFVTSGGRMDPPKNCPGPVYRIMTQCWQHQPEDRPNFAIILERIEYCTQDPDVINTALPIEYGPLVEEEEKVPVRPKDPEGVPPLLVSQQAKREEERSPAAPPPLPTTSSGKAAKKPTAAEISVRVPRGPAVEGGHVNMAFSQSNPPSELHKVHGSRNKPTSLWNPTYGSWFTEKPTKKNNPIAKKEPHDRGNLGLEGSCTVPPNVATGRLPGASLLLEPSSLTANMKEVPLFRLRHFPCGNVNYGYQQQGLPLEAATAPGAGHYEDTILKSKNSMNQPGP
Chain of IGF-1R (P08069 960-1367): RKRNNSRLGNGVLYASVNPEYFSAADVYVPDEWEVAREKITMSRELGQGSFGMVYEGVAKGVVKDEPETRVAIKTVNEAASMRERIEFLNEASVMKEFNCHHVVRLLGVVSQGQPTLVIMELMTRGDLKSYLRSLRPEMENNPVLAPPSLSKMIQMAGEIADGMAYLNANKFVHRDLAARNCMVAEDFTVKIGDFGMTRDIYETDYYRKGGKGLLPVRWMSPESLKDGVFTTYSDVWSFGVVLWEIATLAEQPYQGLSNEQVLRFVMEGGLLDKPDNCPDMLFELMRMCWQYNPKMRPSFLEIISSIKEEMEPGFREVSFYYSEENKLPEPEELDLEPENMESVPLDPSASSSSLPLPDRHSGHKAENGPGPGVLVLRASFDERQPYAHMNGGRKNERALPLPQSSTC
Procedure for IGF-1R: Biochemical Assay for Inhibitors of IGF-1 R Kinase Activity The inhibitory activity of putative kinase inhibitors and the potency of selected compounds were determined using a trans-phosphorylation assay. A specific substrate was incubated with the kinase in appropriate buffer conditions in the presence of ATP traced with ^33P-γ-ATP (gamma phosphate-labeled, RedivueTM Code Number AH9968, 1000-3000 Ci/mmole, Amersham Biosciences Piscataway, N.J., USA), optimal cofactors and test compound. At the end of the phosphorylation reaction, more than 98% cold and radioactive ATP were captured by an excess of Dowex ion exchange resin. The resin was allowed to settle to the bottom of reaction wells by gravity. Supernatant, containing substrate peptide, was subsequently withdrawn and transferred into a counting plate, and radioactivity (corresponding to phosphate incorporated into peptide) was evaluated by β-counting. […] Prior to starting the kinase inhibition assay, IGF-1R was pre-phosphorylated in order to linearize reaction kinetics. […] The peptide was obtained in batches of >95% peptide purity from American Peptide Company, Inc. (Sunnyvale, Calif., USA). […] Compounds showing desired inhibition were further analysed in order to study the potency of the inhibitor through IC50 calculation. […]

On ALK, `CN1CCN(c2ccc(C(=O)Nc3n[nH]c4ccc(Cc5cc(F)cc(F)c5)cc34)cc2)CC1` [Cpd 4, N-[5-(3,5-Difluoro-benzyl)-1H-indazol-3-yl]-4-(4-methyl-piperazin-1-yl)-benzamide] displayed an IC50 of 0.207 µM.
For the compound `CN1CCN(c2ccc(C(=O)Nc3n[nH]c4ccc(Cc5cc(F)cc(F)c5)cc34)c(NC3CCCCC3)c2)CC1` [Cpd 18, 2-Cyclohexylamino-N-[5-(3,5-difluoro-benzyl)-1H-indazol-3-yl]-4-(4-methyl-piperazin-1-yl)-benzamide], the values for the IC50 against ALK and against IGF-1R were 1.77 µM and 6.07 µM, respectively.
In the case of `COCCNc1cc(N2CCN(C)CC2)ccc1C(=O)Nc1n[nH]c2ccc(Cc3cc(F)cc(F)c3)cc12` [Cpd 26, N-[5-(3,5-Difluoro-benzyl)-1H-indazol-3-yl]-2-(2-methoxy-ethylamino)-4-(4-methyl-piperazin-1-yl)-benzamide], the IC50 against ALK came to 0.411 µM.
